Measurements published in ChEMBL document CHEMBL3244339, “Antitumor 1-(X-aryl)-3,3-dialkyltriazenes. 1. Quantitative structure-activity relationships vs. L1210 leukemia in mice” (J Med Chem, 1978).
The source made the active and inactive calls. No cut-off for these calls is given here.

What was measured:
L1210 [1] = experiment: Antitumor activity against mouse L1210 cells allografted in mouse assessed as increase of host lifespan of 110 days; type: functional, cell-based
[2] = Aqueous phase distribution coefficient, log P of the compound in phosphate buffer at pH 7.4; type: physicochemical
L1210 [3] = experiment: Antitumor activity against mouse L1210 cells allografted in mouse assessed as increase of host lifespan; type: functional
[4] = Distribution coefficient, log P of the compound; type: physicochemical; conditions: octanol/water; read-out: logP
Mus musculus = organism: Mus musculus; experiment: Toxicity in mouse L1210 cells allografted mouse assessed as mortality up to 5 days; type: organism-based; conditions: l1210, 120 h

SMILES: CSc1ccccc1/N=N/N(C)C
- Activity (L1210 [1]): inactive
- logD [2]: 3.13

SMILES: CN(C)/N=N/c1ccccc1C(N)=O
- log(1/C) (L1210 [3]): 3.31
- logD [2]: 1.73
- logP [4]: 1.73

SMILES: COc1ccccc1/N=N/N(C)C
- Activity (Mus musculus): Toxic
- logD [2]: 2.34

SMILES: CN(C)/N=N/c1ccccc1
- log(1/C) (L1210 [3]): 3.85
- logD [2]: 2.59
- logP [4]: 2.59
